In US4459417A, “Process for preparing spectinomycin analogs: N-demethylation of spectinomycin or its analogs and realkylation of the intermediates” (The Upjohn Company, priority 1983, dated 1984):
≈ marks a conversion by molar mass, not a printed value. Where a name gives a salt, the structure may show the parent alone.

Legend:
Assay in all cases: Minimum inhibitory concentration in vitro
Type in all cases: cell-based
P. stuartii UC 6570 = conditions: for MIC: Providencia stuartii, UC6570
S. faecalis UC 694 = conditions: for MIC: Enterococcus faecalis, UC694
Ps. aeruginosa UC 95 = conditions: for MIC: Pseudomonas aeruginosa, UC95
K. pneumoniae UC 58 = conditions: for MIC: Klebsiella pneumoniae, UC58
S. typhi UC 215 = conditions: for MIC: Salmonella enterica, read-out: Minimum Inhibitory Concentration; for Minimum Inhibitory Concentration: in vitro, S. typhi UC 215
P. mirabilis UC 6671 = conditions: for MIC: Proteus mirabilis, UC6671
E. coli UC 45 = conditions: for MIC: Escherichia coli, UC45
S. aureus UC 76 = conditions: for MIC: Staphylococcus aureus, UC76
S. marcescens UC 131 = conditions: for MIC: Serratia marcescens, UC131
S. flexneri UC 143 = conditions: Shigella flexneri, UC143
P. vulgaris UC 93 = conditions: for MIC: Proteus vulgaris, UC93
S. schottmuelleri UC 126 = tested on: S. schottmuelleri UC 126

Compound: CCN[C@@H]1[C@H](O)[C@H](NCC)[C@H]2O[C@@]3(O)C(=O)C[C@@H](C)O[C@H]3O[C@@H]2[C@H]1O [IIIa, N,N'-didemethyl-N,N'-diethylspectinomycin dihydrochloride]
- MIC (P. stuartii UC 6570): > 1000 µg/mL
- MIC (S. faecalis UC 694): > 1000 µg/mL
- MIC (Ps. aeruginosa UC 95): 1000 µg/mL
- MIC (K. pneumoniae UC 58): 31.2 µg/mL
- MIC (S. typhi UC 215): 1000 µg/mL
- MIC (P. mirabilis UC 6671): 62.5 µg/mL
- MIC (E. coli UC 45): 1000 µg/mL
- MIC (S. aureus UC 76): 500 µg/mL
- MIC (S. marcescens UC 131): 62.5 µg/mL
- MIC (S. flexneri UC 143): 31.2 µg/mL
- MIC (P. vulgaris UC 93): 125 µg/mL
- MIC (S. schottmuelleri UC 126): > 1000 µg/mL

Compound: C[C@@H]1CC(=O)[C@]2(O)O[C@@H]3[C@@H](N)[C@@H](O)[C@@H](N)[C@H](O)[C@H]3O[C@@H]2O1 [IIa, N,N'-didemethylspectinomycin dihydrochloride]
- MIC (S. faecalis UC 694): > 1000 µg/mL
- MIC (Ps. aeruginosa UC 95): 250 µg/mL
- MIC (K. pneumoniae UC 58): 125 µg/mL
- MIC (S. typhi UC 215): > 1000 µg/mL
- MIC (P. mirabilis UC 6671): 1000 µg/mL
- MIC (E. coli UC 45): > 1000 µg/mL
- MIC (S. aureus UC 76): 250 µg/mL
- MIC (S. marcescens UC 131): 31.2 µg/mL
- MIC (S. flexneri UC 143): 250 µg/mL
- MIC (P. vulgaris UC 93): 125 µg/mL

Compound: CN[C@@H]1[C@H](O)[C@H](NC)[C@H]2O[C@@]3(O)C(=O)C[C@@H](C)O[C@H]3O[C@@H]2[C@H]1O [Ia, spectinomycin]
- MIC (P. stuartii UC 6570): 1000 µg/mL (≈ 3010 µM)
- MIC (S. faecalis UC 694): 31.2 to 62.5 µg/mL (≈ 93.9 to 188 µM)
- MIC (Ps. aeruginosa UC 95): 31.2 µg/mL (≈ 93.9 µM)
- MIC (K. pneumoniae UC 58): 2 to 3.9 µg/mL (≈ 6.02 to 11.7 µM)
- MIC (S. typhi UC 215): 3.9 to 7.8 µg/mL (≈ 11.7 to 23.5 µM)
- MIC (P. mirabilis UC 6671): 3.9 to 7.8 µg/mL (≈ 11.7 to 23.5 µM)
- MIC (E. coli UC 45): 3.9 to 7.8 µg/mL (≈ 11.7 to 23.5 µM)
- MIC (S. aureus UC 76): 7.8 µg/mL (≈ 23.5 µM)
- MIC (S. marcescens UC 131): 3.9 to 7.8 µg/mL (≈ 11.7 to 23.5 µM)
- MIC (S. flexneri UC 143): 3.9 to 7.8 µg/mL (≈ 11.7 to 23.5 µM)
- MIC (P. vulgaris UC 93): 7.8 to 15.6 µg/mL (≈ 23.5 to 46.9 µM)
- MIC (S. schottmuelleri UC 126): 7.8 µg/mL (≈ 23.5 µM)

Compound: Mono-N-demethylspectinomycin dihydrochlorides [IIb]
- Minimum Inhibitory Concentration (S. faecalis UC 694): 125 Micrograms/Milliliter
- Minimum Inhibitory Concentration (K. pneumoniae UC 58): 15.6 Micrograms/Milliliter
- Minimum Inhibitory Concentration (S. typhi UC 215): 62.5 Micrograms/Milliliter
- Minimum Inhibitory Concentration (P. mirabilis UC 6671): 15.6 Micrograms/Milliliter
- Minimum Inhibitory Concentration (S. aureus UC 76): 15.6 Micrograms/Milliliter
- Minimum Inhibitory Concentration (S. marcescens UC 131): 3.9 Micrograms/Milliliter
- Minimum Inhibitory Concentration (P. vulgaris UC 93): 15.6 Micrograms/Milliliter

Compound: mono-N-demethyl-mono-N-ethylspectinomycin dihydrochloride [IIIb]
- Minimum Inhibitory Concentration (P. stuartii UC 6570): > 500 Micrograms/Milliliter
- Minimum Inhibitory Concentration (S. faecalis UC 694): 500 Micrograms/Milliliter
- Minimum Inhibitory Concentration (Ps. aeruginosa UC 95): 31.2 Micrograms/Milliliter
- Minimum Inhibitory Concentration (K. pneumoniae UC 58): 3.9 Micrograms/Milliliter
- Minimum Inhibitory Concentration (S. typhi UC 215): 125 Micrograms/Milliliter
- Minimum Inhibitory Concentration (P. mirabilis UC 6671): 15.6 Micrograms/Milliliter
- Minimum Inhibitory Concentration (E. coli UC 45): 62.5 Micrograms/Milliliter
- Minimum Inhibitory Concentration (S. aureus UC 76): 31.2 Micrograms/Milliliter
- Minimum Inhibitory Concentration (S. marcescens UC 131): 7.8 Micrograms/Milliliter
- Minimum Inhibitory Concentration (P. vulgaris UC 93): 7.8 Micrograms/Milliliter
